Laboratory results from patent publication US6528655B1, “Aromatic derivatives with HIV integrase inhibitory properties” (Pharmacor, Inc., priority 2000, dated 2003).
pIC50: −log10 of the molar value. Where two headings read alike, the source gives them in different places.

Molecular target: HIV-1 integrase (Human immunodeficiency virus type 1 group M subtype B, UniProt P04585)
Assay: HIV-1 integrase inhibition assay (radiolabeled duplex substrate corresponding to the U5 end of the HIV LTR)
Assay type: biochemical
Protocol: For the purpose of Table 1 to 4, the HIV-1 integrase inhibition assay was carried out following a known procedure (Burke, Jr. T. R. et al., J. Med. Chem. 38, 4171-4178 (1995)). A suitable radiolabeled duplex substrate corresponding to the U5 end of the HIV LTR was used.
For the purposes of Table 1 to 4 the HIV-1 integrase inhibition assay was based on a known procedure (Hazuda, D. J. et al., Nucleic Acids Res. 22 1121-1122 (1994)).

[1] = Table 1, compounds of formula II′, read-out: IC50

| Structure (SMILES) | pIC50 | pIC50 [1] |
| --- | --- | --- |
| O=C(C[C@H](NC(=O)c1ccc(O)c(O)c1)C(=O)NCCc1ccc(O)c(O)c1)OC1CCCCC1 [Example 1, N-[Nα-(3,4-Dihydroxybenzoyl)-Oγ-cyclohexyl-L-aspartyl]dopamine] | 4.47 | – |
| Nc1cc(C(=O)N[C@H](Cc2cn(C(c3ccccc3)(c3ccccc3)c3ccccc3)cn2)C(=O)NCCc2ccc(O)c(O)c2)ccc1O [Example 2, N-[Nα-(3-Amino-4-hydroxybenzoyl)-Nτ-trityl-D-histidinyl]dopamine] | < 5.30 | – |
| O=C(NCCCC[C@H](NC(=O)c1ccc(O)c(O)c1)C(=O)O)c1ccc(O)c(O)c1 [Example 3, Nα,Nε-di-(3,4-Dihydroxybenzoyl)-L-lysine] | 4.85 | – |
| O=C(N[C@@H](Cc1ccc(O)cc1)C(=O)NCCc1ccc(O)c(O)c1)c1cnc(O)nc1O [Example 4, N-[Nα-(2,4-Dihydroxypyrimidinyl-5-carbonyl)-L-tyrosyl]dopamine] | < 5.00 | – |
| O=C(/C=C/c1ccc(O)c(O)c1)NCCCC[C@H](NC(=O)/C=C/c1ccc(O)c(O)c1)C(=O)NCCc1ccc(O)c(O)c1 [Example 5, N-(Nα,Nε-Dicaffeoyl-L-lysyl)dopamine] | 6.29 | – |
| O=C(/C=C/c1ccc(O)c(O)c1)NCCCC[C@H](NC(=O)/C=C/c1ccc(O)c(O)c1)C(=O)OCc1ccccc1 [Example 6, Nα,Nε-Dicaffeoyl-L-lysine Benzyl Ester] | 5.57 | – |
| C[C@@H](OCc1ccccc1)[C@H](NC(=O)c1ccc(O)c(O)c1)C(=O)NCCc1ccc(O)c(O)c1 [Example 9, N-[Nα-(3,4-Dihydroxybenzoyl)-O-benzyl-L-threonyl]dopamine] | < 5.30 | – |
| O=C(/C=C/c1ccc(O)c(O)c1)NCCC[C@H](NC(=O)/C=C/c1ccc(O)c(O)c1)C(=O)NCCc1ccc(O)c(O)c1 [Example 11, N-(Nα,Nδ-Dicaffeoyl-L-ornithyl)dopamine] | 6.06 | – |
| O=C(/C=C/c1ccc(O)c(O)c1)N[C@@H](CSC(c1ccccc1)(c1ccccc1)c1ccccc1)C(=O)NCCc1ccc(O)c(O)c1 [Example 12, N-(Nα-Caffeoyl-S-trityl-L-cysteinyl)dopamine] | 6.33 | – |
| O=C(C=Cc1ccc(O)c(O)c1)NC(Cc1cn(C(c2ccccc2)(c2ccccc2)c2ccccc2)cn1)C(=O)NCCc1ccc(O)c(O)c1 [Example 13, N-(Nα-Caffeoyl-Nτ-trityl-L-histidinyl)dopamine] | 6.43 | – |
| O=C(N[C@@H](Cc1cn(C(c2ccccc2)(c2ccccc2)c2ccccc2)cn1)C(=O)NCCc1ccc(O)c(O)c1)c1ccc(O)c(O)c1 [Example 14, N-[Nα-(3,4-Dihydroxybenzoyl)-Nτ-trityl-L-histidinyl]dopamine] | 7.19 | – |
| O=C(N[C@@H](Cc1ccc(O)c(O)c1)C(=O)NCCc1ccc(O)c(O)c1)c1ccc(O)c([N+](=O)[O-])c1 [Example 15, N-[Nα-(4-Hydroxy-3-nitrobenzoyl)-L-3,4-dihydroxyphenylalanyl]dopamine] | 6.36 | – |
| O=C(N[C@H](Cc1cn(C(c2ccccc2)(c2ccccc2)c2ccccc2)cn1)C(=O)NCCc1ccc(O)c(O)c1)c1ccc(O)c(O)c1 [Example 16, N-[Nα-(3,4-Dihydroxybenzoyl)-Nτ-trityl-D-histidinyl]dopamine] | 6.81 | – |
| O=C(N[C@@H](Cc1cn(C(c2ccccc2)(c2ccccc2)c2ccccc2)cn1)C(=O)NCCc1ccc(O)c(O)c1)c1ccc(O)c([N+](=O)[O-])c1 [Example 17, N-[Nα-(4-Hydroxy-3-nitrobenzoyl)-Nτ-trityl-L-histidinyl]dopamine] | 5.80 | – |
| O=C(N[C@H](Cc1cn(C(c2ccccc2)(c2ccccc2)c2ccccc2)cn1)C(=O)NCCc1ccc(O)c(O)c1)c1ccc(O)c([N+](=O)[O-])c1 [Example 18, N-[Nα-(4-Hydroxy-3-nitrobenzoyl)-Nτ-trityl-D-histidinyl]dopamine] | 6.25 | – |
| O=C(C=Cc1ccc(O)c(O)c1)NC(Cc1cn(-c2ccc([N+](=O)[O-])cc2[N+](=O)[O-])cn1)C(=O)NCCc1ccc(O)c(O)c1 [Example 19, N-[Nα-Caffeoyl-Nτ-(2,4-dinitrophenyl)-L-histidinyl]dopamine] | 6.25 | – |
| Nc1ccc(C(=O)N[C@@H](Cc2ccc(O)c(O)c2)C(=O)O)cc1O [Example 20, Nα-(4-Amino-3-hydroxybenzoyl)-L-3,4-dihydroxyphenylalanine] | < 5.30 | – |
| O=C(N[C@@H](Cc1cn(-c2ccc([N+](=O)[O-])cc2[N+](=O)[O-])cn1)C(=O)NCCc1ccc(O)c(O)c1)c1ccc(O)c(O)c1 [Example 21, N-[Nα-(3,4-Dihydroxybenzoyl)-Nτ-(2,4-dinitrophenyl)-L-histidinyl]dopamine] | 6.82 | – |
| O=C(N[C@@H](Cc1cn(-c2ccc([N+](=O)[O-])cc2[N+](=O)[O-])cn1)C(=O)NCc1ccc(O)c(O)c1)c1ccc(O)c(O)c1 [Example 23, N-[Nα-(3,4-Dihydroxybenzoyl)-Nτ-(2,4-dinitrophenyl)-L-histidinyl]-3,4-dihydroxybenzylamine] | 6.58 | – |

| Structure (SMILES) | pIC50 | pIC50 [1] |
| --- | --- | --- |
| CC(C)(C)OC(=O)N[C@@H](Cc1cn(-c2ccc([N+](=O)[O-])cc2[N+](=O)[O-])cn1)C(=O)NCc1ccc(O)c(O)c1 [Example 24, N-[Nα-tert-Butoxycarbonyl-Nτ-(2,4-dinitrophenyl)-L-histidinyl]-3,4-dihydroxybenzylamine] | < 5.30 | – |
| O=C(N[C@@H](Cc1cn(C(c2ccccc2)(c2ccccc2)c2ccccc2)cn1)C(=O)NCc1ccc(O)c(O)c1)c1ccc(O)c(O)c1 [Example 25, N-[Nα-(3,4-Dihydroxybenzoyl)-Nτ-trityl-L-histidinyl]-3,4-dihydroxybenzylamine] | < 6.00 | – |
| Cc1ccc(C(NC(=O)CC[C@H](NC(=O)c2ccc(O)c([N+](=O)[O-])c2)C(=O)NCc2ccc(O)c(O)c2)(c2ccccc2)c2ccccc2)cc1 [Example 26, N-[Nα-(4-Hydroxy-3-nitrobenzoyl)-Nδ-methyltrityl-L-glutaminyl]-3,4-dihydroxybenzylamine] | 6.27 | – |
| O=C(CCc1ccc(O)c(O)c1)N[C@@H](Cc1cn(C(c2ccccc2)(c2ccccc2)c2ccccc2)cn1)C(=O)NCCc1ccc(O)c(O)c1 [Example 27, N-(Nα-Dihydrocaffeoyl-Nτ-trityl-L-histidinyl)dopamine] | < 5.30 | – |
| Cc1ccc(C(c2ccccc2)(c2ccccc2)n2cnc(C[C@H](NC(=O)CCc3ccc(O)c(O)c3)C(=O)NCCc3ccc(O)c(O)c3)c2)cc1 [Example 28, N-(Nα-Dihydrocaffeoyl-Nτ-methyltrityl-L-histidinyl)dopamine] | – | 6.15 |
| O=C(N[C@@H](Cc1cn(C(c2ccccc2)(c2ccccc2)c2ccccc2)cn1)C(=O)O)c1ccc(O)c(O)c1 [Example 29, Nα-(3,4-Dihydroxybenzoyl)-Nτ-trityl-L-histidine] | 5.80 | – |
| O=C(C=Cc1ccc(O)c(O)c1)NC(Cc1cn(C(c2ccccc2)(c2ccccc2)c2ccccc2)cn1)C(=O)NCc1ccc(O)c(O)c1 [Example 31, N-(Nα-Caffeoyl-Nτ-trityl-L-histidinyl)-3,4-dihydroxybenzylamine] | 6.44 | – |
| Cc1ccc(C(NC(=O)CC[C@H](NC(=O)c2ccc(O)c(O)c2)C(=O)NCc2ccc(O)c(O)c2)(c2ccccc2)c2ccccc2)cc1 [Example 32, N-[Nα-(3,4-Dihydroxybenzoyl)-Nδ-methyltrityl-L-glutaminyl]-3,4-dihydroxybenzylamine] | 6.59 | – |
| Cc1ccc(C(NC(=O)CC[C@H](NC(=O)/C=C/c2ccc(O)c(O)c2)C(=O)NCc2ccc(O)c(O)c2)(c2ccccc2)c2ccccc2)cc1 [Example 33, N-(Nα-Caffeoyl-Nδ-methyltrityl-L-glutaminyl)-3,4-dihydroxybenzylamine] | 6.81 | – |
| O=C(N[C@@H](COCc1ccccc1)C(=O)NCCc1ccc(O)c(O)c1)c1ccc(O)c([N+](=O)[O-])c1 [Example 34, N-[Nα-(4-Hydroxy-3-nitrobenzoyl)-O-benzyl-L-seryl]dopamine] | 5.74 | – |
| O=C(/C=C/c1cccc([N+](=O)[O-])c1)N[C@@H](Cc1cn(C(c2ccccc2)(c2ccccc2)c2ccccc2)cn1)C(=O)NCCc1ccc(O)c(O)c1 [Example 35, N-(Nα-(3-Nitrocinnamoyl)-Nτ-trityl-L-histidinyl)dopamine] | 5.92 | – |
| Cc1ccc(C(c2ccccc2)(c2ccccc2)n2cnc(C[C@H](NC(=O)c3ccc(O)c([N+](=O)[O-])c3)C(=O)NCCc3ccc(O)c(O)c3)c2)cc1 [Example 36, N-[Nα-(4-Hydroxy-3-nitrobenzoyl)-Nτ-methyltrityl-L-histidinyl]dopamine] | – | 6.24 |
| O=C(NCCCC[C@H](NC(=O)c1c(O)cc(O)cc1O)C(=O)NCCc1ccc(O)c(O)c1)OCc1ccccc1 [Example 37, N-[Nα-(2,4,6-Trihydroxybenzoyl)-Nε-benzyloxycarbonyl-L-lysyl]dopamine] | 5.80 | – |
| O=C(N[C@@H](CSC(c1ccccc1)(c1ccccc1)c1ccccc1)C(=O)NCCc1ccc(O)c(O)c1)c1c(O)cccc1F [Example 38, N-[Nα-(2-Fluoro-6-Hydroxybenzoyl)-S-trityl-L-cysteinyl]dopamine] | 5.85 | – |
| O=C(N[C@@H](Cc1cn(C(c2ccccc2)(c2ccccc2)c2ccccc2)cn1)C(=O)NCCc1ccc(O)c(O)c1)c1cc(O)c(O)c(O)c1 [Example 39, N-[Nα-(3,4,5-Trihydroxybenzoyl)-Nτ-trityl-L-histidinyl]dopamine] | 6.65 | – |
| O=C(C=Cc1ccc(O)c(O)c1)NC(Cc1cn(Cc2ccccc2)cn1)C(=O)NCCc1ccc(O)c(O)c1 [Example 40, N-(Nα-Caffeoyl-Nτ-benzyl-L-histidinyl)dopamine] | 6.08 | – |
| O=C(C=Cc1ccc([N+](=O)[O-])cc1)NC(Cc1cn(C(c2ccccc2)(c2ccccc2)c2ccccc2)cn1)C(=O)NCCc1ccc(O)c(O)c1 [Example 41, N-(Nα-(4-Nitrocinnamoyl)-Nτ-trityl-L-histidinyl)dopamine] | 5.94 | – |
| CC(C)(C)OC[C@H](NC(=O)/C=C/c1ccc(O)c(O)c1)C(=O)NCCc1ccc(O)c(O)c1 [Example 42, N-(Nα-Caffeoyl-O-tert-butyl-L-seryl)dopamine] | 6.35 | – |
